Measurements reported in US20040005537A1, “Method of identifying toxic agents using differential gene expression” (priority 2000, published 2004).

System: rat heart tissue
Assay: GENECALLING differential gene expression analysis after dosing of serotonin modulating agents
Format: in vivo, Sprague Dawley rats
Method in brief: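 GENECALLING profiling of cDNA from total RNA, keeping gene fragments modulated beyond ±1.5-fold. Tissue collected 24 h after final dosing of serotonin modulating agents; control rats received sterile water or canola oil.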

Which results are given for CCN[C@@H](C)Cc1cccc(C(F)(F)F)c1 [dexfenfluramine]?
Effects on Transcription Level: Novel gene fragment, 467 bp, 94% SI to mouse gelsolin [J04953] (CARDIOTOX 70): −3.2 fold; Effects on Transcription Level: Novel gene fragment, 535 bp, 90% SI to mouse slow/cardiac troponin C [M29793] (CARDIOTOX 71): −2.0 fold; Effects on Transcription Level: Novel gene fragment, 445 bp, 85% SI to human skeletal muscle alpha 2 actinin [M86406] (CARDIOTOX 72): −1.7 fold; Effects on Transcription Level: Novel gene fragment, 246 bp, 89% SI to mouse ponsin-1 [AF078667] (CARDIOTOX 73): −3.1 fold; Effects on Transcription Level: Novel gene fragment, 126 bp, 77% SI to human DNA sequence from cosmid V311G7, between markers DXS366 and DXS87 on chromosome X [Z69304] (CARDIOTOX 74): +2.0 fold; Effects on Transcription Level: Novel gene fragment, 370 bp (CARDIOTOX 75): −2.6 fold; Effects on Transcription Level: Novel gene fragment, 337 bp, 78% SI to novel human protein AHNAK [M80899] (CARDIOTOX 76): −4.2 fold; Effects on Transcription Level: Novel gene fragment, 100 bp, 93% SI to human KIAA0750 protein [ABO18293] (CARDIOTOX 77): −7.5 fold; Effects on Transcription Level: Novel gene fragment, 44 bp (CARDIOTOX 78): −6.5 fold; Effects on Transcription Level: Novel gene fragment, 698 bp, 93% SI to mouse plenty-of-prolines-101 [AF062655] (CARDIOTOX 79): −2.3 fold; Effects on Transcription Level: Novel gene fragment, 660 bp, 84% SI to mouse membrane protein TMS-2 [AF181685] (CARDIOTOX 80): −3.6 fold; Effects on Transcription Level: Novel gene fragment, 115 bp (CARDIOTOX 81): −4.0 fold; Effects on Transcription Level: Novel gene fragment, 294 bp, 95% SI to mouse Ndr1 related protein Ndr2 [AB033921] (CARDIOTOX 82): −2.0 fold; Effects on Transcription Level: Novel gene fragment, 198 bp (CARDIOTOX 83): +2.5 fold; Effects on Transcription Level: Novel gene fragment, 730 bp, 86% SI to mouse E800 [Y10968] (CARDIOTOX 84): −2.0 fold; Effects on Transcription Level: Novel gene fragment, 294 bp, 98% SI to cysteine conjugate beta-lyase [S61960] (CARDIOTOX 85): −2.0 fold; Effects on Transcription Level: Aconitase (CARDIOTOX 86, GenBank A1243266): −3.1 fold; Effects on Transcription Level: Ribosomal protein L7 (CARDIOTOX 87, GenBank M17422): +2.5 fold; Effects on Transcription Level: Ribosomal protein L9 (CARDIOTOX 88, GenBank X51706): +10.0 fold; Effects on Transcription Level: Ribosomal protein L12 (CARDIOTOX 89, GenBank X53504): −2.2 fold; Effects on Transcription Level: 18S, 5.8S, and 28S ribosomal RNA's (CARDIOTOX 90, GenBank V01270): +5 fold; Effects on Transcription Level: Pyruvate dehydrogenase kinase 2 (PDK2) (CARDIOTOX 91, GenBank U10357): −6.9 fold; Effects on Transcription Level: D-Binding Protein (DBP) (CARDIOTOX 92, GenBank J03179): −1.9 fold; Effects on Transcription Level: Lipoprotein lipase (CARDIOTOX 93, GenBank L03294): −2.2 fold; Effects on Transcription Level: Non-neuronal enolase (CARDIOTOX 94, GenBank X02610): +3.5 fold; Effects on Transcription Level: Glycogen phosphorylase (muscle isozyme) (CARDIOTOX 95, GenBank L10669): −2.0 fold; Effects on Transcription Level: Cytochrome c oxidase subunit IV (CARDIOTOX 96, GenBank X14209): +10.0 fold; Effects on Transcription Level: Alpha-globin (CARDIOTOX 97, GenBank M17083): +3.0 fold; Effects on Transcription Level: Beta-globin (CARDIOTOX 98, GenBank X06701): +3.1 fold; Effects on Transcription Level: Myoglobin (CARDIOTOX 99, GenBank AF197916): +4.7 fold; Effects on Transcription Level: Titin (CARDIOTOX 100, GenBank L38717): −2.0 fold; Effects on Transcription Level: Skeletal muscle actin (CARDIOTOX 101, GenBank V01218): −18.2 fold; Effects on Transcription Level: Myosin light chain 2 (MLC2) (CARDIOTOX 102, GenBank M11851): +2.6 fold; Effects on Transcription Level: Alpha cardiac myosin heavy chain (CARDIOTOX 103, GenBank X15938): −3.4 fold; Effects on Transcription Level: Troponin I (CARDIOTOX 104, GenBank U77354): +1.8 fold; Effects on Transcription Level: Cardiac calsequestrin (CARDIOTOX 105, GenBank AF001334): −2.9 fold; Effects on Transcription Level: Sulfated glycoprotein 2 (CARDIOTOX 106, GenBank M16975): −1.8 fold; Effects on Transcription Level: Aquaporin 7 (CARDIOTOX 107, GenBank AB000507): +1.5 fold; Effects on Transcription Level: Carnitine/acylcarnitine carrier protein (CARDIOTOX 108, GenBank X97831): −2.5 fold; Effects on Transcription Level: Glu-Pro Dipeptide Repeat (CARDIOTOX 109, GenBank U40628): −5.0 fold; Effects on Transcription Level: Cystatin beta (CARDIOTOX 110, GenBank X54737): +2.5 fold; Effects on Transcription Level: Novel gene fragment, 593 bp, 90% SI to human calcineurin B-like protein [Z08983] (CARDIOTOX 111): +1.9 fold; Effects on Transcription Level: Novel gene fragment, 179 bp, 88% SI to human titin [X90568] (CARDIOTOX 112): −3.1 fold; Effects on Transcription Level: Novel gene fragment, 700 bp, 91% SI to mouse periplakin (PPL) [AF116523] (CARDIOTOX 113): +2.5 fold; Effects on Transcription Level: Long chain acyl-CoA dehydrogenase (LCAD) (CARDIOTOX 114, GenBank J05029): +1.7 fold; Effects on Transcription Level: Sulfated glycoprotein 1 (SGP-1) (CARDIOTOX 115, GenBank M19936): −1.7 fold; Effects on Transcription Level: Catalase (CARDIOTOX 116, GenBank M11670): +2.1 fold; Effects on Transcription Level: Alpha-fodrin (A2A) (Nonerythroid spectrin alpha subunit) (CARDIOTOX 117, GenBank AF084186): −1.7 fold; Effects on Transcription Level: Cardiac specific sodium channel alpha-subunit (CARDIOTOX 118, GenBank M27902): −2.0 fold; Effects on Transcription Level: Glu-Pro Dipeptide Repeat (CARDIOTOX 119, GenBank U40628): +4.6 fold; Effects on Transcription Level: Novel gene fragment, 200 bp, 64% SI to human KIAA0733 protein [AB018316] (CARDIOTOX 120): −1.6 fold; Effects on Transcription Level: RNA polymerase II transcription factor SIII (p18 subunit) (CARDIOTOX 121, GenBank L42855): +2.0 fold; Effects on Transcription Level: Protein-tyrosine phosphalase (LRP) (CARDIOTOX 122, GenBank L01702): +1.7 fold; Effects on Transcription Level: Skeletal muscle selenoprotein W (SelW) (CARDIOTOX 123, GenBank U25264): −1.6 fold; Effects on Transcription Level: Sarcoplasmic reticulum 2+-Ca-ATPase (CARDIOTOX 124, GenBank X15635): −2.0 fold; Effects on Transcription Level: Ribosomal protein S7 (CARDIOTOX 125, GenBank X53377): +1.7 fold; Effects on Transcription Level: Ribophorin I (CARDIOTOX 126, GenBank X05300): +2.0 fold; Effects on Transcription Level: Beta cardiac myosin heavy chain (CARDIOTOX 127, GenBank X15939): +2.4 fold; Effects on Transcription Level: ADP-ribosylation factor 1 (CARDIOTOX 128, GenBank L12380): +1.1 fold; Effects on Transcription Level: Laminin receptor (CARDIOTOX 129, GenBank U04942): +2.6 fold; Effects on Transcription Level: Novel gene fragment, 206 bp, 89% SI to human seryl-tRNA synthetase [X91257] (CARDIOTOX 130): +1.8 fold; Effects on Transcription Level: Annexin VI (CARDIOTOX 131, GenBank X86086): −10.0 fold; Effects on Transcription Level: Novel gene fragment, 325 bp, 90% SI to mouse N-RAP [U76618] (CARDIOTOX 132): +1.7 fold; Effects on Transcription Level: Novel gene fragment, 61 bp (CARDIOTOX 134) (LD10 dose for three days): −1.8 fold; Effects on Transcription Level: Novel gene fragment, 337 bp (CARDIOTOX 133) (LD10 dose for three days): −2.0 fold; Effects on Transcription Level: Novel gene fragment, 378 bp, 88% SI to human coatomer protein (COPA) [U24105] (CARDIOTOX 138) (LD10 dose for three days): −2.0 fold; Effects on Transcription Level: Long chain 3-ketoacyl-CoA thiolase (CARDIOTOX 136) (LD10 dose for three days, GenBank D16479): −1.5 fold; Effects on Transcription Level: TATA-binding protein interacting protein 120 (TIP120) (CARDIOTOX 135) (LD10 dose for three days, GenBank D87671): +2.3 fold; Effects on Transcription Level: Serine protease (CARDIOTOX 139) (LD10 dose for three days, GenBank D88250): +1.6 fold; Effects on Transcription Level: Thymosin beta-4 (CARDIOTOX 137) (LD10 dose for three days, GenBank M34043): +1.4 fold; Effects on Transcription Level: Annexin VI (no CARDIOTOX assignment given) (LD10 dose for three days, GenBank X86086): −5.1 fold
